From US20220339167A1, “HORMONE D (VITAMIN D) AND ITS DERIVATIVES FOR THE TREATMENT AND PREVENTION OF CANCER” (Industrial Technologies & Biotechnologies, priority 2019, published 2022)

Assays:
HL-60 = conditions: cited from earlier work
nonmelanoma skin cancers = assay: oral hormone D3 treatment of nonmelanoma skin cancers; format: in vivo; conditions: twelve nonmelanoma skin cancers; oral intake, 466 IU daily, between 6 and 8 months
cancer = conditions: cited from earlier work
[1] = tested on: cancer or major cardiovascular events; conditions: 2000 IU daily for 5 years, initially healthy adults; cited from earlier work
colorectal cancer = conditions: 400 IU vitamin D3 with 1000 mg elemental calcium as calcium carbonate; average seven years follow-up; cited from earlier work
normal colonic mucosa = conditions: six months; vitamin D3 800 IU daily with calcium 2000 mg daily; cited from earlier work

Row | Structure (SMILES) | cell differentiation (HL-60) | outcome of treated nonmelanoma skin cancers (nonmelanoma skin cancers) | authors' conclusion on cancer prevention (cancer; high dose supplementation prescribed monthly) | participants with primary outcome of cancer (cancer; oral, initial bolus 200,000 IU then 100,000 IU monthly, up to 4 years, without calcium, placebo group 6.4%) [%] | incidence of cancer or major cardiovascular events [1] | interaction between risk of colorectal cancer and supplementation (colorectal cancer) | apoptosis in normal colonic mucosa (molecular markers) (normal colonic mucosa)
1 | C=C1/C(=C\C=C2/CCC[C@]3(C)[C@@H]([C@H](C)CCCC(C)(C)O)CC[C@@H]23)C[C@@H](O)C[C@@H]1O [1α,25-dihydroxyvitamin D3] | induces HL-60 differentiation into macrophage-monocyte like cells | – | – | – | – | – | –
2 | C=C1CC[C@H](O)C/C1=C/C=C1\CCC[C@]2(C)[C@@H]([C@H](C)CCCC(C)C)CC[C@@H]12 [hormone D3, cholecalciferol] | – | all of them were resolved completely | may no prevent cancer | 6.5 | not reduce the incidence of cancer or major cardiovascular events | no significant interaction | may enhance apoptosis in normal colonic mucosa
